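These data come from cells grown in 96-well plates and exposed to compound for 48 hours at five concentrations. GI50 marks 50% less growth.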 Activity calls are given as the source filed them. No stated cut-off is given here; in the data, active = GI50 up to about 1.1 µM and inactive = higher.
How the values were obtained:
Assay in all cases: NCI-60 cell line screen, 48 h
NCI-H460 = tested on: NCI-H460
CCRF-CEM = tested on: CCRF-CEM
SW-620 = tested on: SW-620
SNB-19 = tested on: SNB-19
UACC-257 = tested on: UACC-257
OVCAR-5 = tested on: OVCAR-5
M14 = tested on: M14
ACHN = tested on: ACHN
SR = tested on: SR
786-0 = tested on: 786-0
OVCAR-4 = tested on: OVCAR-4
A498 = tested on: A498
HCT-116 = tested on: HCT-116
MOLT-4 = tested on: MOLT-4
LXFL 529 = tested on: LXFL 529
RXF 393 = tested on: RXF 393
UO-31 = tested on: UO-31
HCT-15 = tested on: HCT-15
SF-268 = tested on: SF-268
SK-MEL-2 = tested on: SK-MEL-2
HOP-62 = tested on: HOP-62
DMS-273 = tested on: DMS-273
IGROV-1 = tested on: IGROV-1
HT-29 = tested on: HT-29
LOX IMVI = tested on: LOX IMVI
NCI-H23 = tested on: NCI-H23
SF-295 = tested on: SF-295
CAKI-1 = tested on: CAKI-1
K562 = tested on: K562
KM12 = tested on: KM12
SNB-78 = tested on: SNB-78
OVCAR-3 = tested on: OVCAR-3
SN12C = tested on: SN12C
SK-MEL-28 = tested on: SK-MEL-28
HCC 2998 = tested on: HCC 2998
SF-539 = tested on: SF-539
RPMI-8226 = tested on: RPMI-8226
TK-10 = tested on: TK-10
HL-60 = tested on: HL-60
COLO 205 = tested on: COLO 205
NCI-H226 = tested on: NCI-H226
OVCAR-8 = tested on: OVCAR-8
EKVX = tested on: EKVX
KM-20L2 = tested on: KM-20L2
U-251 = tested on: U-251
A549 = tested on: A549
NCI-H522 = tested on: NCI-H522
UACC-62 = tested on: UACC-62

O=[N+]([O-])C(=C1c2ccccc2-c2ccccc21)[N+](=O)[O-]
GI50 (NCI-H460): 48 µM (inactive) | GI50 (CCRF-CEM): 47.6 µM (inactive) | GI50 (SW-620): 64.7 µM (inactive) | GI50 (SNB-19): 97.5 µM (inactive) | GI50 (UACC-257): 52.8 µM (inactive) | GI50 (OVCAR-5): 91.2 µM (inactive) | GI50 (M14): > 100 µM (inactive) | GI50 (ACHN): 62.8 µM (inactive) | GI50 (SR): > 100 µM (inactive) | GI50 (786-0): > 100 µM (inactive) | GI50 (OVCAR-4): > 100 µM (inactive) | GI50 (A498): 57.3 µM (inactive) | GI50 (HCT-116): 38 µM (inactive) | GI50 (MOLT-4): 32.6 µM (inactive) | GI50 (LXFL 529): 41.3 µM (inactive) | GI50 (RXF 393): > 100 µM (inactive) | GI50 (UO-31): 52.4 µM (inactive) | GI50 (HCT-15): > 10 µM | GI50 (SF-268): 20.9 µM (inactive) | GI50 (SK-MEL-2): > 100 µM (inactive) | GI50 (HOP-62): > 100 µM (inactive) | GI50 (DMS-273): > 10 µM (inactive) | GI50 (IGROV-1): 61.5 µM (inactive) | GI50 (HT-29): 50.6 µM (inactive) | GI50 (LOX IMVI): 83.4 µM (inactive) | GI50 (NCI-H23): > 10 µM (inactive) | GI50 (SF-295): > 10 µM (inactive) | GI50 (CAKI-1): > 100 µM (inactive) | GI50 (K562): 43.8 µM (inactive) | GI50 (KM12): 57.5 µM (inactive) | GI50 (SNB-78): > 100 µM (inactive) | GI50 (OVCAR-3): > 100 µM (inactive) | GI50 (SN12C): > 100 µM (inactive) | GI50 (SK-MEL-28): > 100 µM (inactive) | GI50 (HCC 2998): 70.5 µM (inactive) | GI50 (SF-539): > 100 µM (inactive) | GI50 (RPMI-8226): 44 µM (inactive) | GI50 (TK-10): > 100 µM (inactive) | GI50 (HL-60): 29.2 µM (inactive) | GI50 (COLO 205): > 100 µM (inactive) | GI50 (NCI-H226): 69.2 µM (inactive) | GI50 (OVCAR-8): > 100 µM (inactive) | GI50 (EKVX): > 100 µM (inactive) | GI50 (KM-20L2): 57.3 µM (inactive) | GI50 (U-251): > 100 µM (inactive) | GI50 (A549): 38.5 µM (inactive) | GI50 (NCI-H522): 44.1 µM (inactive) | GI50 (UACC-62): 49.3 µM (inactive)

Source: ChEMBL document CHEMBL1201862, “PubChem BioAssay data set” (2004)
